The test system of one test is A549. As to the kind of experiment: Cytotoxicity against human A549 cells assessed as inhibition of cell viability after 48 hrs by MTT assay. In kind it is functional, cell-based. Conditions: A549, 48 h.
The species named for test [1] is Danio rerio. Kind of test: Antiangiogenic activity against wild AB-type transgenic zebrafish embryo expressing green fluorescent protein-labeled VEGFR2 assessed as inhibition of growth of intersegmental vessels treated at 24 hrs post fertilization measured after 48 hrs by alkaline phosphatase staining. The test is classed as functional, organism-based.
Test [2] is filed under the species Danio rerio. As to the kind of experiment: Antiangiogenic activity against wild AB-type transgenic zebrafish embryo expressing green fluorescent protein-labeled VEGFR2 assessed as inhibition of growth of intersegmental vessels at 33.6 uM treated at 24 hrs post fertilization measured after 48 hrs by alkaline phosphatase staining. The test is classed as functional.

In general, IC50 refers to the point on the concentration scale where inhibition reaches its midpoint.

`C=C1CC[C@H]2[C@@H]([C@@H]3[C@@H]1C1=C(C[C@H](C)C1=O)C(=O)[C@H]3C)C2(C)C` [SIKKIMENOID A]: the IC50 with A549 is more than 10 µM.
With `C=C1CC[C@H]2[C@@H]([C@@H]3[C@@H]1C1=C(C[C@@H](C)C1=O)C(=O)[C@H]3C)C2(C)C` [SIKKIMENOID B], the half-inhibitory concentration (IC50) in the test filed under Danio rerio [1] is 43 µM; in the test with A549, more than 10 µM. Also, the “growth inhibition (GI)” value in the test listed under Danio rerio [1] is “Dose-dependent effect”; in the test listed under Danio rerio [2] it was 41.1%.
In the case of `C=C1CC[C@H]2[C@@H]([C@@H]3[C@@H]1C1=C(C[C@](C)(O)C1=O)C(=O)[C@H]3C)C2(C)C` [SIKKIMENOID C], in the test with A549, the IC50 is more than 10 µM.
As for `C=C1CC[C@H]2[C@@H]([C@@H]3[C@@H]1C1=C(C[C@@](C)(O)C1=O)C(=O)[C@H]3C)C2(C)C` [SIKKIMENOID D], the IC50 with A549 is more than 10 µM.
For `Clc1ccc(Nc2nnc(Cc3ccncc3)c3ccccc23)cc1` [VATALANIB], the half-inhibitory concentration (IC50) in the test filed under Danio rerio [1] is 0.23 µM.

Values taken from ChEMBL document CHEMBL2331434, “Jatropholane-type diterpenes from Euphorbia sikkimensis” (J Nat Prod, 2013).
